Measurements taken from patent US8247529B2, “Neoplasia targeting peptides and methods of using the same” (The Board of Trustees of the Leland Stanford Junior …, priority 2008, dated 2012).
“Also recorded” adds a separate entry of the source. Each block holds one substance with its values, some of them ahead of it.

How the values were obtained:
[1] = test system: Seg-1 cells (esophageal adenocarcinoma); assay: Phage binding assay (cell binding of phage clones relative to insertless phage); settings: Seg-1 vs QhTERT, p<0.01
Experimental: Individual phage clones (2×10^11 pfu) were incubated at room temperature for 30 min with Segl and Q-hTERT cells. The columns represent the mean of measurements from three wells and the bars represent the standard deviation (SD). P-values for each group were calculated using student's t test.
According to the sequencing results some peptide sequence expressed on more than one phage clones. These phage clones had been amplified respectively for the binding assay. Seg-1 cell and Q-hTERT cell (None dysplasia Barrett's cell line) were growth in 6 well plate. 2×10^11 pfu each single clone phage were incubated with both cell in triple wells. Wild-type (no insert) phage (M13KE, New England Biolabs, Beverly, Mass.) was used as control. The incubation, two-step elution and tittering were done as mentioned above. […] Fold binding of each phage relative to none insert phage was measured. Different binding of each phage clone on Seg-1 and QhTERT were calculated using student's t test.

[2] = test system: OE21 cells (squamous esophagus carcinoma); assay: Peptide binding on cell lines; settings: 100 μmol FITC-conjugated peptide, 15 min room temperature
Experimental: (§1) FITC-conjugated peptide (100 μmol) was incubated with Segl (Panel a), OE21 (Panel c), QhTERT (Panel d) cells. Peptide binding were found in plasma membrane of >90% of Seg1 cells (Panel a).
(§2) 3×10^4-5×10^4 Seg-1, OE21, QhTERT cells were grown in chamber slides.
(§3) Blocking of non-specific binding to these cells was performed by adding 200 μL of 1% BSA diluted in PBS for 30 min. The cells were then incubated with 100 μmol of the targeted FITC conjugated peptide in serum free media for 15 min in room temperature. The scrambled peptide had been used as control. Wash cells 3-time use 200 μL PBS/0.5% TWEEN 20 in room temperature. Cell were fixed by ice cold Acetone 90 second. Then mounted by Vectashield mounting medium with DAPI. Fluorescence images were collected with a confocal microscope (Nikon 1000) at 200×. The fluorescence intensity from the cells in 3 images were averaged to assess peptide binding.

[3] = test system: QhTERT (normal Barrett's) cells; assay: Peptide binding on cell lines; settings: 100 μmol FITC-conjugated peptide, 15 min room temperature
Experimental: as §1, §2, §3

Seg1 cells = assay: Competitive inhibition assay; type: binding; settings: unconjugated peptide 100, 500, 1000 μmol (5 or 10 times higher concentration) 15 min prior to FITC-conjugated peptide, P<0.01
Experimental: Unconjugated peptide was incubated with Seg1 cells 15 min prior to adding of FITC-conjugated peptide in three different concentrations. […] Error bars represent mean±s.e.m. for 3 images. *P<0.01.
Competitive inhibition of targeted peptide binding was evaluated by incubating the cells in culture with unconjugated (no FITC) peptide at concentrations of 100, 500, and 1000 μmol. Three fluorescence images were collected at 200× from each well of the chamber slide using the same gain and exposure time. Images selected for analysis met the following criteria: 1) 70-90% cell confluence, 2) away from the edge of each well, 3) low background binding on cell free area of slide, 4) No change in cellular morphology. The mean cell numbers under three 200× view were record to calculate the percentage of peptide binding cells. Quantification of the fluorescence intensities was done by NIH Image J software to calculate pixel value between each group under the same threshold. Differences in the mean fluorescence intensities were compared using a student's t test.

[4] = test system: Barrett's with high-grade dysplasia (HGD) tissue; assay: Targeted peptide binding on esophageal mucosa (human tissue specimens)
Experimental: (§4) Specimens were incubated with 100 μmol FITC-conjugated peptide in PBS (Panels a, b, c, d). Hematoxylin and eosin staining (Panels e, f, g, h) was performed on adjacent sections to show the pathology diagnosis. In HGD tissue the binding site is a group of consecutive cells located in the lining of esophageal. In normal Barrett's mucosa the binding site is sporadic separated cells in some area of mucosa.
(§5) IRB approval was granted by the Stanford University Medical Center, the VA Palo Alto Health Care Systems, and El Camino Hospital. Human subjects with a history of Barrett's esophagus undergoing routine screening endoscopy were recruited for this study and informed consent was obtained. Subjects with coagulation abnormalities, or low tolerance for endoscopy were excluded from the study. Tissue specimens were collected using standard pinch biopsy from regions of endoscopically apparent Barrett's and squamous esophagus and duodenum mucosa. Histopathology was evaluated by two gastrointestinal pathologists in a blinded fashion according to common criteria (Goldblum, Mod Pathol 2003;16:316-24).
(§6) The tissue specimens were placed immediately after excision in an Eppendorf tube containin PBS at 4° C. PBS and incubated with100 μmol of targeted peptide ‘ASYNYDA’ for 15 minutes at room temperature. After being washed three times with PBS at 4° C., the specimens were embedded in OCT freezing compound (Sakura finetek USA), cut in 6 μm sections, and placed onto Poly-D-lysine coated slides. The tissue specimens were fixed in acetone at 4° C. for 90 seconds, counterstained with DAPI, and mounted in Vectashield. An adjacent serial section of the specimen was cut and stained with H&E for routine histology and comparison.
(§7) For each specimen 10 serial section were screened under microscope. Three highest intensity fluorescence images were collected at 400× using the same gain and exposure time. Fluorescence intensities of images were quantified by NIH Image J software to calculate pixel value between each sample under the same threshold (40, 255). Differences in the mean fluorescence intensities between four tissue types were compared using a student's t test.

[5] = test system: adjacent normal esophageal mucosa; assay: as above; settings: 100 μmol FITC-conjugated peptide in PBS, 15 min, fresh biopsy
Experimental: as §4, §5, §6, §7

duodenal mucosa = assay: as above; settings: 100 μmol FITC-conjugated peptide in PBS, 15 min, fresh biopsy
Experimental: as §4, §5, §6, §7

[6] = test system: normal (non-dysplastic) Barrett's tissue; assay: as above; settings: 100 μmol FITC-conjugated peptide in PBS, 15 min, fresh biopsy
Experimental: as §4, §5, §6, §7

Seg-1 cells = assay: Peptide binding on cell lines; settings: 100 μmol FITC-conjugated peptide, 15 min room temperature
Experimental: as §1, §2, §3

GIL hTERT(HGD) cells = assay: Peptide binding on cell lines; settings: FITC-conjugated peptide
Experimental: as §3

TE7 cells = assay: Peptide binding on cell lines; settings: FITC-conjugated peptide
Experimental: as §3

[7] = test system: esophageal adenocarcinoma within Barrett's esophagus; assay: In vivo molecular imaging, small animal model (EGJ rat, fluorescence endoscopy); settings: topical 1 mL 100 μM, 5 min incubation, rinsed
Excerpt: In vivo molecular imaging has been performed in small animal models of esophageal neoplasia to localize binding by targeted peptides. A rigid endoscope for imaging the rat esophagus consists of a 9.5 Fr (3 mm) diameter rigid Hopkins II 0 deg telescope with a 11.5 cm working length (Karl Storz Veterinary Endoscopy, Goleta, Calif.). A 3 Fr (1 mm) diameter instrument channel is available to perform tissue biopsy. Fluorescence excitation light is produced with a 450 to 475 nm passband filter that can be manually placed into the optical path of a xenon (175 W) light source, and is delivered to the endoscope via a light guide. Fluorescence images were collected with 510 nm barrier filter to block the excitation light, and detected with a color CCD camera. The molecular imaging studies were performed in the surgically-altered (EGJ) rats after 36 weeks. The rats were fasted overnight, anesthetized using inhaled isoflurane, and placed in the supine position. The extremities and incisors were restrained to prevent injury to the animal. The endoscope was inserted into the distal esophagus using ˜1 to 2 ml of air injected through an instrument port to dilate the esophageal lumen. The FITC-labeled target peptide was topically administered through the instrument channel onto the distal esophagus in a 1 mL solution diluted in PBS at a concentration of 100 μM. After incubation for 5 minutes, excess peptide was rinsed off with tap water, and binding was evaluated by fluorescence. […] A complete examination usually lasts <2 minutes.

[8] = test system: high-grade dysplasia in Barrett's esophagus; assay: Clinical imaging (fluorescence endoscopy of distal esophagus); type: in vivo; settings: human, topical ~3 ml 10 μM
Excerpt: Endoscopic images collected in vivo of distal esophagus in human subject with Barrett's esophagus and high grade dysplasia on white-light endoscopy (Panel a) and fluorescence imaging (Panel b).
A prototype endoscope was used to collect fluorescence images of peptide binding from human subjects with Barrett's esophagus and high-grade dysplasia using the target peptide labeled with FITC. With IRB approval and informed consent, human subjects with a history of Barrett's esophagus and biopsy proven high-grade dysplasia scheduled for endoscopic mucosal resection were recruited into the study. After esophageal intubation, a 10 second video was collected in the white light mode. Then, ˜3 ml of peptide at a concentration of 10 μM was administered topically to the distal esophagus using a mist spray catheter. After 5 minutes for incubation, excess peptide was gently rinsed off with water, and another 10 second video was collected of the peptide targeted fluorescence image. The mucosa of the distal esophagus was then removed by endoscopic mucosal resection. Each video stream was exported into individual frames.
(§8) No distinct architectural lesions can be appreciated. […] Targeted biopsies were collected from sites suspicious for HGD, non-dysplastic Barrett's esophagus. The specimens were embedded in OCT media, cooled to […], and cut into 10 μm horizontal sections on a cryostat.

[9] = test system: Barrett's mucosa with high-grade dysplasia; assay: Confocal fluorescence of frozen sections of targeted biopsies after clinical imaging; type: binding; settings: biopsies after topical administration in human subjects, 400×
Experimental: (§9) Routine histology (H&E) of corresponding images is shown in Panel c and Panel d, magnification 400×.
as §8
(§10) The specimens were then evaluated for fluorescence on a tabletop confocal microscope, and an adjacent section was formalin fixed and stained with H&E for evaluation by two pathologists. […] Routine histology (H&E) of the corresponding images (Panels c and d) from adjacent frozen sections are also shown for purposes of comparison, magnification 400×.

[10] = test system: Barrett's mucosa with no dysplasia; assay: as above; type: binding; settings: biopsies after topical administration in human subjects, 400×
Experimental: as §9, §8, §10

peptide binding to Barrett's with high-grade dysplasia tissue ([4]; 100 μmol FITC-conjugated peptide in PBS, 15 min, fresh biopsy): bound
peptide binding to adjacent normal esophageal mucosa [5]: did not bind
peptide binding to duodenal mucosa (duodenal mucosa): did not bind
peptide binding to normal Barrett's tissue [6]: bound
Substance: ASYNYDA
fluorescence intensity with Seg-1 than with QhTERT cells [1]: 5 times
peptide binding to OE21 cells [2]: didn't binding
peptide binding to QhTERT cells [3]: didn't binding
inhibition of FITC-conjugated peptide binding to Seg1 cells by unconjugated peptide (Seg1 cells): can be inhibited
inhibition of FITC-conjugated peptide binding to Seg1 cells by unconjugated peptide (Seg1 cells; listed as unconjugated peptide 17): could be inhibited
quantization of peptide binding (fluorescence intensity, NIH Image J), HGD vs other tissues ([4]; HGD vs Barrett's, duodenal and normal esophageal mucosa, P<0.01): higher preferential bind on HGD than other tissues

binding to Barrett's mucosa with high-grade dysplasia (frozen section) ([9]; listed as FITC-labeled peptide): significant binding
binding to Barrett's mucosa with high-grade dysplasia (frozen section) ([9]; listed as target peptide): Significant binding
binding to Barrett's mucosa with no dysplasia (frozen section) [10]: minimal binding
Substance: ASYNYDA-GGGSK-FITC [Peptide 17-FITC]
percentage of Seg-1 cells with peptide binding on plasma membrane (Seg-1 cells): > 90%
percentage of GIL hTERT(HGD) cells with peptide binding on cytoplasm (GIL hTERT(HGD) cells): 1%
percentage of TE7 cells with peptide binding on cytoplasm (TE7 cells): 37%
average target-to-background ratio [7]: 5±2
fluorescence at site of lesion after topical peptide ([7]; listed as FITC-labeled target peptide): Increased fluorescence intensity was observed at the site of the lesion
fluorescence at site of lesion after topical peptide ([7]; listed as target peptide): increased fluorescence intensity at the site of the lesion
fluorescence at site of lesion after topical peptide ([8]; 5 min incubation, rinsed, listed as FITC-labeled target peptide): increased fluorescence intensity at a site; also recorded: increased fluorescence intensity at the site of the lesion
target-to-background ratio (HGD vs non-dysplastic Barrett's metaplasia) ([8]; mean fluorescence of 5 independent regions): 1.52

Substance: YANSAYD [scrambled peptide-FITC]
peptide binding to Seg-1 cells (Seg-1 cells): did not bind on any cells
peptide binding to Seg-1 cells (Seg-1 cells; listed as Scrambled FITC-conjugated peptide): no binding
